Data from patent US20140329863A1 (priority 2011, published 2014).
Entries after “also recorded” stand apart in the source; their conditions may differ. Where two headings read alike, the source gives them in different places.

Assays:
[1] = Hepatic microsome stability, mouse; type: in vitro ADME; details: mouse liver microsomes
Procedure: (§1) Hepatic microsomal stability assays were performed in two stages. In the first set of experiments, aliquots of the DMSO solute stocks were diluted into ACN and then into assay buffer (PBS, pH 7.4, ±0.05% PS80). Final experimental solute concentrations were 1 μM (0.6% ACN, 0.01% DMSO). Commercially available mouse, rat, or human hepatic microsomes (˜0.5 mg/ml final concentration), and NADPH (1 mM) or PBS were added. The resulting mixture was incubated at 37° C., and aliquots removed at 0, 1, 10, 30 and 60 min, then quenched with ACN containing 2 μM carbamazepine (internal standard). […] Duplicate incubations were run for each time-point. The percentage of solute remaining at the end of the incubation was used to determine solute half-life.
(§2) These were diluted 500-fold into 1 mL of microsomal incubation mixture to yield a final concentration of 1 μM. The incubation mixture was composed of 100 mM phosphate buffer, pH 7.4, and NADPH regenerating system (BD Biosciences NADPH Regenerating System Solutions A & B). This mixture was preincubated at 37° C. for 5 min in an Eppendorf Thermo mixer, and the reaction initiated by addition of 0.5 mg (25 μl of a 20 mg/mL solution) of liver microsomes. Aliquots (100 μl) were withdrawn at 0, 5, 15, 30, and 60 min, and added to 100 μl ACN containing internal standard. […] The percentage of solute remaining at the end of the incubation was used to determine species-specific values of scaled intrinsic clearance, hepatic clearance, and predicted hepatic extraction based upon the calculations below {Obach, 1999 #9097}.
(§3) for which mg microsomal protein/gm liver was 45 for all species, and gm liver/kg body weight were 32 for dog, 88 for mouse, 40 for rat and 25 for human.
(§4) Clh=(Q*Clint,scaled)/(Q+Clint,scaled)
(§5) for which Q was hepatic blood flow; values of 90 ml/min/kg for mouse, 66 ml/min/kg for rat, and 21 ml/min/kg for human were used.
(§6) for which ER estimates the amount of compound cleared during a single pass through the liver (Low ER<0.3, moderate ER 0.3-0.7, high ER>0.7).

[2] = Hepatic microsome stability, human; type: in vitro ADME; details: for metabolism in HLM incubations: pooled human liver microsomes, 60 min, with or without CYP inhibitors
Procedure: as §1, §2, §3, §4, §5, §6

[3] = […]
[4] = Hepatic microsomal stability, rat; details: for half-life at 1 μM: Sprague-Dawley, pH 7.4
[5] = Hepatic microsomal stability, mouse; details: for half-life at 1 μM: CD-1, mouse, pH 7.4
[6] = Hepatic microsomal stability, human; details: for half-life at 1 μM: pH 7.4
[7] = Tolerability / toxicity on repeated dosing in mice
[8] = Multiple-dose (three-day) pharmacokinetic studies in FVB mice, drug in liquid diet; type: in vivo, mouse; details: for concentration at 3 days: FVB, mouse, oral
Procedure: Aminothiazole analog (e.g., 4.5 g of 27) was added to 15 mL of pure PEG400, vortexed and sonicated to ensure dissolution, then stored at −4° C. until needed. This highly concentrated PEG400 solution was subsequently diluted to final dosing concentrations, where the volume added was composed of homogenized solid rodent feed, cocoa (taste masking agent), and water. Wild-type FVB mice weigh ˜25 gm and typically drink 20 mL of liquid diet per day, allowing an estimate of daily drug consumption. A single dosing cohort consisted of three mice in a shared cage and liquid diet was provided at the start of the study in sufficient volume to last for the entire three-day trial (˜200 mL). At the end of the three-day dosing period, animals were euthanized by CO2, followed by collection of plasma (cardiac puncture) and removal of whole brain. Heparinized blood was centrifuged to separate plasma and both plasma and brain samples were stored at −80° C. prior to analysis. Plasma samples were prepared for analysis by precipitating proteins and reconstituting the remaining fraction with HPLC mobile phase. Brain samples were typically prepared by four-fold dilution with water after weighing, then homogenized using bead-beater or Polytron™ resulting in a highly concentrated solution that was further diluted with mobile phase as appropriate in preparation for bioanalytical analysis using LC-MS. Analysis was by LC-MS (Shimadzu dual-HPLC pumps, C18 analytical column, with detection using an Applied Biosystems API-4000 triple quadrupole mass spectrometer).
Ten compounds were selected from among the 34 2-AMTs for three-day multiple-dose PK studies at PO doses ranging from 40-210 mg/kg. Selection was based on diversity in potency, chemical structure, and a range of physicochemical properties. We used a liquid diet to facilitate easy drug administration, as well as serve as the daily source of all water and food. This approach was chosen because the mouse bioassay studies that would be used to assess drug effects on survival would be expected to run for 110 to 400 days, or more; gavage dosing for such a long period is not feasible and more stressful to mice. For the multiple-dose PK studies, 4.5 g of the 2-AMT analogs was added to 15 mL of pure PEG400, vortexed and sonicated to ensure dissolution, then stored at −4° C. until needed. This highly concentrated PEG400 solution was subsequently diluted to final dosing concentrations and added to the rodent liquid diet, cocoa (taste-masking agent), and water.
Wild-type FVB mice weigh ˜25 g and typically drink 20 mL of liquid diet per day, allowing an estimate of daily drug consumption. A single dosing cohort consisted of three mice in a shared cage and liquid diet was provided at the start of the study in sufficient volume (˜200 mL) to last for the entire three-day period. At the end of the dosing period, animals were euthanized by CO2, followed by collection of plasma (cardiac puncture) and removal of whole brain. Samples were processed and stored as described above for the 10 mg/kg single-dose studies.
Plasma and brain homogenate samples were extracted using a protein-precipitation method and analyzed by specific LC/MS/MS methods developed for each compound dosed in vivo. The analytical method accuracy and precision were monitored by analyzing quality control (QC) samples that were prepared by the same methods as the plasma or brain homogenate samples. The brain and plasma concentration data were used to calculate the maximal concentration (Cmax), area under the concentration-time curve (AUClast), and absolute bioavailability (% F) by noncompartmental analysis with sparse sampling performed using Phoenix WinNonlin 6.1 software (Pharsight, Mountain View, Calif.).

in vitro = details: dog, MDCK-MDR1
P-gp (MDR1) = experiment: in vitro; details: dog, MDCK-MDR1
[9] = chronic studies in mice, wide range of doses

| Compound | metabolism in HLM incubations ([2]; 1 μM) | half-life at 1 μM ([4]; rat) [min] | % remaining after a 60-min incubation, Rat [4] [%] | half-life at 1 μM ([5]; liver microsomes) [min] | half-life at 1 μM ([5]; mouse liver microsomes) [min] | half-life at 1 μM ([5]; female, liver microsomes) [min] | half-life at 1 μM ([5]; male, liver microsomes) [min] | % remaining after a 60-min incubation, Mouse ([5]; mouse liver microsomes) [%] | half-life at 1 μM ([6]; both, human, liver microsomes) [min] | % remaining after a 60-min incubation, Human ([6]; human liver microsomes) [%] | half-life at 1 μM ([6]; human, human liver microsomes) [min] | half-life at 1 μM ([6]; human, liver microsomes) [min] | hepatic extraction ratio (ER) [1] | hepatic extraction ratio (ER) ([2]; human liver microsomes) | hepatic extraction ratio (ER) [3] | Papp A→B (in vitro) [×10⁻⁶ cm/s] | Papp B→A (in vitro) [×10⁻⁶ cm/s] | efflux ratio (P-gp (MDR1)) | Hepatic Extraction Ratio Rat ([4]; rat microsomes) | Hepatic Extraction Ratio Mouse ([5]; mouse microsomes) | other results |
| --- | --- | --- | --- | --- | --- | --- | --- | --- | --- | --- | --- | --- | --- | --- | --- | --- | --- | --- | --- | --- | --- |
| Cc1cccc(Nc2nc(-c3ccc(-c4ccccc4)cc3)cs2)n1 [IND24, (4-Biphenyl-4-yl-thiazol-2-yl)-(6-methyl-pyridin-2-yl)-amine] | very little metabolism | > 60 | 90 | > 60 | > 60 | 290 | 190 | 89 | 1400 | 105 | > 60 | > 60 | – | – | – | – | – | – | – | – | metabolic stability (in words) [1]: stable; also recorded: excellent stability; half-life at 1 μM ([1]; pH 7.4, 1 μM): > 60 min; metabolic stability (in words) ([2]; human liver microsomes): stable; also recorded: excellent stability; half-life at 1 μM ([2]; pH 7.4, human liver microsomes, 1 μM): > 60 min; metabolic stability (in words) [3]: stable; tolerability [7, 9]: well tolerated |
| Cc1ccc(Nc2nc(-c3cc(-c4ccccc4)no3)cs2)nc1 [IND33, (5-Methyl-pyridin-2-yl)-[4-(3-phenyl-isoxazol-5-yl)-thiazol-2-yl]-amine] | – | > 60 | 73 | 99 | > 60 | – | – | 111 | – | 42 | 54 | 54 | lower to moderate | lower to moderate | lower to moderate | 6.8 | 8.3 | 1.2 | 0.3 | 0.5 | concentration at 3 days ([8]; brain, 3 days in liquid diet, 130 mg/kg dose, read-out: brain concentration): ~30 µM; t1/2 Rat (extrapolated) ([4]; rat microsomes): 151* min; Hepatic Extraction Ratio Human ([6]; human): 0.7; Hepatic Extraction Ratio Human ([6]; human microsomes): 0.7 |
| COc1ccc(-c2csc(Nc3ccc4ccccc4n3)n2)cc1OC [IND47, [4-(3,4-Dimethoxy-phenyl)-thiazol-2-yl]-quinolin-2-yl-amine] | – | > 60 | 50 | 72 | > 60 | – | – | 56 | – | 113 | > 60 | > 60 | lower to moderate | lower to moderate | lower to moderate | 9.2 | 8.9 | 1 | 0.5 | 0.6 | concentration at 3 days ([8]; brain, 3 days in liquid diet, 40, 80, 130, 210 mg/kg/day, read-out: brain concentration): ≤ 1 µM; concentration at 3 days ([8]; plasma, 3 days in liquid diet, 40, 80, 130, 210 mg/kg/day, read-out: plasma concentration): ≤ 1 µM; t1/2 Rat (extrapolated) ([4]; rat microsomes): 69* min |
| Cc1ccnc(Nc2nc(-c3ccncc3)cs2)c1 [IND52, (4-Methyl-pyridin-2-yl)-(4-pyridin-4-yl-thiazol-2-yl)-amine] | – | 16 | 8 | 6 | 6 | – | – | 0 | – | 30 | 36 | 36 | higher | higher | higher | 36.2 | 48.7 | 1.3 | 0.8 | 0.95 | brain concentration ([8]; 3 days in liquid diet, 40 mg/kg dose): no measurable brain concentrations; Hepatic Extraction Ratio Rat ([4]; rat): 0.8; Hepatic Extraction Ratio Mouse ([5]; mouse): 0.95; Hepatic Extraction Ratio Human ([6]; human): 0.8; Hepatic Extraction Ratio Human ([6]; human microsomes): 0.8 |
| Cc1ccnc(Nc2nc(-c3ccc(-c4ccccn4)s3)cs2)c1 [IND81, (4-Methyl-pyridin-2-yl)-[4-(5-pyridin-2-yl-thiophen-2-yl)-thiazol-2-yl]-amine] | relatively high turnover | 58 | 48 | 19 | 19 | 26 | 23 | 10 | 40 | 48 | 52 | 52 | – | – | – | 16 | 20.9 | – | – | – | tolerability [7, 9]: well tolerated |
| C(=N\Nc1ccc(-c2cnco2)cc1)/c1ccncc1 [IND54304, reference compound] | – | – | – | – | – | 34 | 25 | – | 130 | – | – | – | moderate (moderate ER 0.3-0.7) | low (Low ER<0.3) | – | – | – | – | – | – | brain concentration as multiple of EC50 ([8]; 3 days in liquid diet, 100 mg/kg/day): ~20 ×EC50; concentration at 3 days ([8]; brain, 3 days in liquid diet, 100 mg/kg/day, read-out: brain concentration): ~10 µM; Hepatic Extraction Ratio Rat Female ([4]; female rat microsomes): 0.27; Hepatic Extraction Ratio Rat Male ([4]; male rat microsomes): 0.27; Hepatic Extraction Ratio Mouse Female ([5]; female mouse microsomes): 0.64; Hepatic Extraction Ratio Mouse Male ([5]; male mouse microsomes): 0.71; Hepatic Extraction Ratio Human ([6]; human (mixed) microsomes, gender study): 0.34; tolerability ([7]; 25, 50, 100, 150 mg/kg for 3 days in liquid diet): tolerated; animals dying ([7]; ≧150 mg/kg/day for 8 days): 2/4 |
